Reference: US4670434A, “(2-oxo-3-methylene-1,2,3,5-tetrahydroimidazo[2,1-b]q uinazolinyl)oxyalkylamides useful as cyclic AMP phosphodiesterase inhibitors” (Syntex (U.S.A.) Inc., priority 1985, dated 1987)

What was measured:
[1] = test system: Human platelet cyclic AMP phosphodiesterase; assay: Cyclic AMP phosphodiesterase assay; format: biochemical; details: 1 μM cyclic AMP as substrate; human platelet enzyme; read-out: IC50 value, inhibition of cyclic AMP phosphodiesterase
Description: (§1) Cyclic AMP phosphodiesterase activity and inhibition of platelet aggregation were determined as follows.
Cyclic AMP phosphodiesterase assay
The inhibition of cyclic AMP phosphodiesterase activity by the subject compounds was assayed by the method of Filburn and Karn, Analyt. Biochem., 52: 505-516 (1973), using 1 μM cyclic AMP as the substrate. Human platelet cyclic AMP phosphodiesterase was obtained from human donors. Platelets were isolated and washed by centrifugation, the membranes ruptured by a sequential freeze-thaw procedure and hypotonic lysis and the soluble enzyme isolated by high speed centrifugation. The enzyme was stored in aliquots at -20° C.

[2] = test system: human platelets; assay: Platelet aggregation (turbidimetric); format: cell-based; details: platelet rich plasma
Description: as §1
Blood was collected into evacuated tubes containing sodium citrate (30 mM). Platelet rich plasma was collected after centrifugation. Aggregation was followed by a turbidimetric procedure described by G. V. R. Born, J. Physiol., Lond., 162: 67P-68P (1962).

[3] = test system: Mongrel dogs; assay: Inotropic activity in anesthetized mongrel dogs; format: in vivo; details: intravenous, anesthetized dog
Description: The inotropic activity of these compounds was determined as follows: Mongrel dogs were anesthetized i.v. with 35 mg/Kg sodium pentobarbital and supplemented as needed. Blood pressure was measured with a Statham pressure transducer via a cannula inserted from a femoral artery into the abdominal aorta. Heart rate was recorded by a cardiotachometer from a lead II electrocardiogram. Right ventricular contractile force was recorded from a Walton-Brodie strain gauge sutured to the right ventricle following a midsternal thoracotomy. A Harvard respirator was used to ventilate the dogs with room air through an endotracheal tube. The dog was bilaterally vagotomized. Following a midline laparotomy, a cannula was sutured into the duodenum for intraduodenal administration of test compound. A femoral vein was cannulated for administration of isoproterenol. All data were recorded on a Beckman R611 Dynograph.
To assess the responsiveness of each dog, isoproterenol was given i.v. at half-log interval doses from 0.007 to 2.1 or 6.67 μg/Kg. The test compound, N-cyclohexyl-N-methyl-4-(2-oxo-3-methylene-1,2,3,5-tetrahydroimidazo-[2,1- b]quinazolin-7-yl)oxybutanamide, was then administered intravenously at dose levels from 0.1 to 1.0 mg/Kg.

SMILES: C=c1c(=O)[nH]c2n1Cc1cc(OCCCC(=O)N(C)C3CCCCC3)ccc1N=2 [N-cyclohexyl-N-methyl-4-(2-oxo-3-methylene-1,2,3,5-tetrahydroimidazo[2,1-b]quinazolin-7-yl)oxybutanamide]
- IC50 [1]: 2.7 nM
- IC50 [2]: 150 nM
- Peak Effects as % of Max. Isoproterenol, Blood Pressure ([3]; 0.1 mg/kg): 42 % of Max. Isoproterenol
- Peak Effects as % of Max. Isoproterenol, Heart Rate ([3]; 0.1 mg/kg): 18 % of Max. Isoproterenol
- Peak Effects as % of Max. Isoproterenol, Rt. Ventricular Contractile Force ([3]; 0.1 mg/kg): 24 % of Max. Isoproterenol
- Peak Effects as % of Max. Isoproterenol, Blood Pressure ([3]; 0.316 mg/kg): 58 % of Max. Isoproterenol
- Peak Effects as % of Max. Isoproterenol, Heart Rate ([3]; 0.316 mg/kg): 28 % of Max. Isoproterenol
- Peak Effects as % of Max. Isoproterenol, Rt. Ventricular Contractile Force ([3]; 0.316 mg/kg): 52 % of Max. Isoproterenol
- Peak Effects as % of Max. Isoproterenol, Blood Pressure ([3]; 1.0 mg/kg): 65 % of Max. Isoproterenol
- Peak Effects as % of Max. Isoproterenol, Heart Rate ([3]; 1.0 mg/kg): 34 % of Max. Isoproterenol
- Peak Effects as % of Max. Isoproterenol, Rt. Ventricular Contractile Force ([3]; 1.0 mg/kg): 62 % of Max. Isoproterenol
